Assay results reported in paper PMC12264943, “Identification of New Human P2X7 Antagonists Using Ligand- and Structure-Based Virtual Screening” (Journal of Chemical Information and Modeling, 2025).
Like-named read-outs stand apart in the source and are kept apart here.

Biological target: T1, hP2X7 (Homo sapiens, UniProt Q99572)
T1 construct: expressed in transfected cells; host or cells: HEK-293, stably transfected (gift of E. Adinolfi's group, Ferrara University)
T1 sequence (Q99572 1-595): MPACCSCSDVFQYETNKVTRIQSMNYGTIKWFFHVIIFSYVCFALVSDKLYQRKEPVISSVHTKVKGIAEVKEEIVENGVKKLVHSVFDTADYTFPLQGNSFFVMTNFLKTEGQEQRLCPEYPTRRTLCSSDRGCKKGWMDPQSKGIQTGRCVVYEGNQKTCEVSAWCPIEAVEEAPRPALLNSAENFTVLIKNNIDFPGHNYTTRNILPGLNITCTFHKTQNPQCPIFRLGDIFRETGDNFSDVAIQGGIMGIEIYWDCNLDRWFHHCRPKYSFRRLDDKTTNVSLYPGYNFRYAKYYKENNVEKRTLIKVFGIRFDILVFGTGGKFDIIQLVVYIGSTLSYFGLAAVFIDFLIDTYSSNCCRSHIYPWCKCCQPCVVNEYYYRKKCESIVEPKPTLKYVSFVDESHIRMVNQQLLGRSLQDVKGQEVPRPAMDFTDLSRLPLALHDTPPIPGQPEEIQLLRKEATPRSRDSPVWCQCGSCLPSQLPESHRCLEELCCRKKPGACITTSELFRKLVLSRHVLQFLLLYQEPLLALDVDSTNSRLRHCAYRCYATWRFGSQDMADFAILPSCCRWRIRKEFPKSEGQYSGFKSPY
Test: YO-PRO 1 dye uptake assay, HEK-293 cells stably transfected with hP2X7
Type: cell-based
Conditions: for EC50: read-out: ATP EC50
Experimental: Astrocytoma 1321 N1 (established by Dr. Gaia Pasqualetto) and HEK-293 (kindly gifted by E. Adinolfi’s group, Ferrara University) both stably transfected with hP2X7, were used to assess the activity of the small molecules selected from the VS. Cells were maintained in DMEM:F12 (PanBiotech) supplemented with 10% FBS, 1% pen-strep, and 150 μg/mL G418 (PanBiotech).
Astrocytoma 1321 N1 cells (2–2.5 × 10^4 cells/well) and HEK-293 cells (4–5 × 10^4 cells/well) expressing hP2X7 were seeded in poly-L-lysine-coated 96-well plates (Sarstedt) 24 h before the experiment. YO-PRO 1 dye was prepared at 5 μM in extracellular solution with low divalent cations (ECS-LD) buffer (147 mM NaCl, 10 mM HEPES, 13 mM glucose, 0.2 mM CaCl2, 2 mM KCl, pH 7.4) and added to cells after washing them with Dulbecco’s phosphate- buffered saline (DPBS) (PanBiotech) and incubated for 20 min at 37 °C. ATP-induced dye uptake, mediated by hP2X7 activation, was monitored using a Clariostar plate reader (excitation: 485 nm; emission: 538 nm) for 30 cycles (75–150 s/cycle), after recording the baseline for five cycles. hP2X7 activation was quantified at cycle 10 by calculating the fluorescence intensity (FI) ratio (Δ(Fcycle 10–F cycle 1)/cycle time).
Compounds 2 and 9, identified as hits, were further evaluated for concentration-dependent inhibition (IC50) of hP2X7 activation in the YO-PRO 1 dye uptake assay using HEK-293 cells stably transfected with hP2X7 (unfortunately, at this point in the study, the stably transfected 1321N1 cells lost P2X7 expression, and we were unable to recover them from frozen aliquots), for which the ATP EC50 was determined to be approximately 1 mM (Supporting material Figure 4C). Seven concentrations (100 to 0.03 μM) were tested, but due to precipitation at 100 μM, the DMSO concentration was increased to 1%.
3 Inhibitory concentration response evaluation of compounds 2 and 9 and their groups highlighted for SAR. […] Compound activity was evaluated along a time of 20 min (75 s per cycle) after ATP addition (700 μM). The fluorescence intensity (FI) values of the first 10 cycles were considered for assessing their ability to inhibit hP2X7. The curves represent three biological replicates (n = 4 per replicate). Data were normalized by setting as 100% the FI recorded by hP2X7 HEK-293 cells incubated in 1% DMSO and stimulated by ATP, and as 0% the FI recorded by the same cells but treated with ECS-LD (assay buffer). (C) Highlighted areas of compound 2 considered for SAR study. R1 refers to the ethyl-benzyl group of the molecules, and R2 and R3 refer to the benzo-(1,3)-dioxol groups. (D) Highlighted areas of compound 9 considered for SAR study. We have defined the area highlighted in yellow and numbered as 1 as the “front” region of the molecule and the one colored in pink and named as 2 as the “back” region of the molecule. L highlights the urea and amide linkers of compounds 2 and 9, respectively.
4 Evaluation of compound 2 and 9 analogue activity using YO-PRO 1 and MPR assays. The activity of compound 2 (A and B) and 9 (C and D) analogues was evaluated in YO-PRO 1 (A and C) and MPR (B and D) assays. The compounds were tested at 10 μM and preincubated for either 20 (YO-PRO 1) or 30 min (MPR). The baseline was recorded for 5 cycles before ATP treatment (1 mM). Fluorescence was recorded for 25 (YO-PRO 1) or 5 min (MPR). The data were normalized by setting as 100% for the fluorescence measured from hP2X7 HEK-293 cells incubated with vehicle (0.1% DMSO) and treated with 1 mM ATP and 0% for the fluorescence recorded by the cells not treated with ATP. The data shown correspond to three independent biological replicates (3 technical replicates per experiment; error bars represent the SEM from the mean values of each biological replicate (n = 3)). The statistical analysis was performed with one-way Anova using Dunnett’s function (P**** < 0.0001; P*** < 0.0003; P** < 0.002; P* < 0.02).

[1] = YO-PRO 1 uptake, HEK-293 hP2X7 cells
[2] = Table 1, table names no assay, values of 2 and 9 are from YO-PRO 1 dye uptake in hP2X7 HEK-293 cells, read-out: IC50

Hill Slope of ATP concentration-response curve [1]	EC50 (YO-PRO 1 uptake, HEK-293 hP2X7 cells, approximate value) [µM]	EC50 [1] [µM]	IC50 [2] [µM]	IC50 (YO-PRO 1 dye uptake, hP2X7 HEK-293 cells, 100 to 0.03 μM, 1% DMSO, read-out: IC50, inhibition of hP2X7 activation) [µM]	Compound
1.397	~1000	1140 ± 239			Nc1ncnc2c1ncn2[C@@H]1O[C@H](COP(=O)(O)OP(=O)(O)OP(=O)(O)O)[C@@H](O)[C@H]1O [ATP, reference compound]
			1.88	1.87	O=C(NCCc1ccccc1)NC(Cc1ccc2c(c1)OCO2)Cc1ccc2c(c1)OCO2 [Compound 2]
			6.82		O=C(CSc1ccccc1C(=O)Nc1ccnn1Cc1cccnc1)Nc1ccc2c(c1)OCO2 [Compound 9]
